Data taken from article PMC12888861, “Antibacterial activity of enmetazobactam against Acinetobacter spp.: a molecular dissection of mechanism of action and resistance determinants” (Antimicrobial Agents and Chemotherapy, 2025).

Tests used:
[1] = target: T1, OXA-23 (Acinetobacter baumannii, UniProt Q9L4P2); test: OXA-23 inhibition assay (nitrocefin hydrolysis IC50); assay type: biochemical; conditions: OXA-23; nitrocefin hydrolysis; 10 min preincubation at room temperature; read-out: IC50
T1 construct: GST (N); made in house; host or cells: Escherichia coli BL21
T1 sequence (Q9L4P2 18-273): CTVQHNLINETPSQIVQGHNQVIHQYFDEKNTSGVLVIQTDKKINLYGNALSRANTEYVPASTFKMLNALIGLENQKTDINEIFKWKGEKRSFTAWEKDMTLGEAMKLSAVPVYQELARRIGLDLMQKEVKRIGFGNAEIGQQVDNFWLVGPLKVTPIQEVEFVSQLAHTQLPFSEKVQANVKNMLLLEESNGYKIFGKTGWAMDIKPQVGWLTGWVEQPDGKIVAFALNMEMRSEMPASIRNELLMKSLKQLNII
Experimental: (§1) The Michaelis-Menten constant (Km) was determined by fitting the data to the Michaelis-Menten equation, following established protocols ([38]). The kcat (hydrolysis rate constant of the β-lactamase) was obtained by linearization of the kinetic data ([39]). To assess the possible inhibitory capacity of enmetazobactam against the CHDLs of A. baumannii, specific OXA-23 inhibition kinetics assays were performed in a Nanoquant Infinite spectrophotometer (Tecan). […] Also, the dissociation constant (koff), which represents the rate at which the enzyme-inhibitor complex dissociates (i.e., the proportion of the enzyme-inhibitor complex that dissociates per unit of time), was determined through a jump-dilution assay that monitored OXA-23 activity recovery as the enzyme-inhibitor complex dissociated. OXA-23 (1 µM) was preincubated for 30 min at 37°C with excess of inhibitors (50× IC₅₀) to ensure full acyl-enzyme complex formation. Subsequently, the mixture was diluted 1:5,000 to allow gradual complex dissociation. […] Enzymatic activity, reflecting the progressive dissociation of the acyl-enzyme complex, was monitored spectrophotometrically at 490 nm for 8 h. The resulting progress curves were fitted using GraphPad Prism (GraphPad Software, MA, USA) to equation 1 to estimate koff, where V0 is the initial, inhibited enzyme velocity; Vs is the steady-state uninhibited enzyme velocity, and t is time.

[2] = system: OXA-24/40; conditions: cited from earlier work
[3] = target: T1, OXA-23; test: Jump-dilution dissociation assay (koff, t1/2) with OXA-23; assay type: biochemical
Experimental: as §1
(1) P=Vs×t+(V0−Vs)×[1−exp^(−koff × t)]/koff

[4] = system: [H][C@@]12CC(=O)N1[C@@H](C(=O)[O-])[C@](C)(Cn1cc[n+](C)n1)S2(=O)=O; test: purified protein, by the assay type; conditions: other: hydrolysis by OXA-23, 25°C, pH 7.4
Experimental: All kinetics measurements were performed in triplicate, at 25°C, in 20 mM NaHCO3 and 50 mM Na2HPO4 at pH 7.4.

[5] = system: carbapenem-resistant CHDL-producing A. baumannii isolates (OXA-23, OXA-24/40, OXA-58); test: Checkerboard synergy assay (FIC index); assay type: cell-based, Acinetobacter baumannii; conditions: checkerboard colistin x enmetazobactam, alone or in presence of the partner
Experimental: Checkerboard assays were performed to assess synergistic interactions between the cefepime/enmetazobactam combination and sulbactam, as well as between enmetazobactam alone and either sulbactam or colistin. […] The assays were conducted with three multidrug-resistant A. baumannii isolates from the Spanish Multicenter Collection, each producing a different OXA-type carbapenemase: OXA-23, OXA-24/40, or OXA-58. The FIC index was calculated and interpreted as follows: FICindex ≤ 0.5, synergy; FICindex > 0.5–4, no synergy; and FICindex > 4, antagonism ([33], [34]).

Compound: CC1=C[C@@H]2CN(C(=O)N2OS(=O)(=O)O)[C@@H]1C(N)=O [durlobactam]
- IC50 [1]: 170 nM
- IC50 [2]: 190 nM
- residence time ([3]; jump dilution): 412 ± 4 min
- koff ([3]; jump dilution 1:5,000): 2.8e-05 s⁻¹

Compound: OXA-23 (Acinetobacter baumannii)
- Km [4]: 171.85 ± 55.78 µM
- kcat [4]: 0.177 ± 0.056 s⁻¹
- kcat/Km [4]: 1030 M⁻¹ s⁻¹

Compound: colistin
- MIC ([5]; isolate Ab4 (OXA-23)): 1 mg/L
- MIC ([5]; isolate Ab138 (OXA-58)): 1 mg/L
- MIC ([5]; isolate Ab180 (OXA-24/40)): 0.25 mg/L
